Results published in ChEMBL document CHEMBL4610066, “Phytol, a Chlorophyll Component, Produces Antihyperalgesic, Anti-inflammatory, and Antiarthritic Effects: Possible NFκB Pathway Involvement and Reduced Levels of the Proinflammatory Cytokines TNF-α and IL-6” (J Nat Prod, 2020).
The source made the active and inactive calls.

How the values were obtained:
Mus musculus [1] = experiment: Antiinflammatory activity in complete freund's adjuvant-induced albino Swiss mouse model of arthritis assessed as reduction in paw volume at 25 to 50 mg/kg, po pretreated for 1 hr followed by CFA stimulation and measured after 2 hrs by plethysmometric method; format: functional, organism-based
Mus musculus [2] = experiment: Antiinflammatory activity in complete freund's adjuvant-induced albino Swiss mouse model of arthritis assessed as reduction in paw edema at 50 mg/kg, po pretreated for 1 hr followed by CFA stimulation and measured up to 6 hrs by plethysmometric method relative to control; format: functional; design: scale not given: the % may be the effect or the level left
Mus musculus [3] = experiment: Antiinflammatory activity in complete freund's adjuvant-induced albino Swiss mouse model of arthritis assessed as reduction in paw edema AUC at 25 mg/kg, po pretreated for 1 hr followed by CFA stimulation and measured up to 6 hrs by plethysmometric method relative to control; format: functional; design: scale not given: the % may be the effect or the level left
Mus musculus [4] = experiment: Antiinflammatory activity in complete freund's adjuvant-induced albino Swiss mouse model of arthritis assessed as reduction in paw edema AUC at 50 mg/kg, po pretreated for 1 hr followed by CFA stimulation and measured up to 6 hrs by plethysmometric method relative to control; format: functional; design: scale not given: the % may be the effect or the level left
Mus musculus [5] = experiment: Analgesic activity in formalin-induced albino Swiss mouse model of nociception assessed as reduction in time spent in paw licking during inflammatory phase at 25 to 50 mg/kg, po pretreated for 1 hr followed by formalin stimulation and measured after 15 to 30 mins by formalin test; format: functional, organism-based
Mus musculus [6] = experiment: Analgesic activity in formalin-induced albino Swiss mouse model of nociception assessed as reduction in time spent in paw licking during neurogenic phase at 50 mg/kg, po pretreated for 1 hr followed by formalin stimulation and measured up to 5 mins by formalin test; format: functional, organism-based
Mus musculus [7] = experiment: Analgesic activity in albino Swiss mouse assessed as increase in reaction time at 50 mg/kg, po measured after 60 to 240 mins by hot plate test; format: functional, organism-based
Mus musculus [8] = experiment: Analgesic activity in albino Swiss mouse assessed as increase in reaction time at 25 mg/kg, po measured after 60 to 90 mins by hot plate test; format: functional, organism-based
Mus musculus [9] = experiment: Analgesic activity in albino Swiss mouse assessed as increase in reaction time at 25 mg/kg, po measured after 120 to 240 mins by hot plate test; format: functional, organism-based
[10] = Neurotoxicity in complete freund's adjuvant-induced albino Swiss mouse model of arthritis assessed as induction of myorelaxant effect by measuring change in muscle force at 50 mg/kg, po pretreated for 1 hr followed by CFA stimulation and measured every other day for 10 days by grip strength meter method; format: toxicity, organism-based; conditions: in vivo, 240 h
[11] = Neurotoxicity in complete freund's adjuvant-induced albino Swiss mouse model of arthritis assessed as motor coordination impairment at 50 mg/kg, po pretreated for 1 hr followed by CFA stimulation and measured up to 240 mins by rotarod test; format: toxicity, organism-based; conditions: in vivo, 4 h
Mus musculus [12] = experiment: Antiinflammatory activity in complete freund's adjuvant-induced albino Swiss mouse model of arthritis assessed as reduction in joint swelling at 50 mg/kg, po administered once daily for 10 days measured every other day during compound dosing; format: functional, organism-based
Mus musculus [13] = experiment: Antiinflammatory activity in complete freund's adjuvant-induced albino Swiss mouse model of arthritis assessed as reduction in edema AUC at 50 mg/kg, po administered once daily for 10 days measured every other day during compound dosing relative to control; format: functional; design: scale not given: the % may be the effect or the level left
Mus musculus [14] = experiment: Antiinflammatory activity in complete freund's adjuvant-induced albino Swiss mouse model of arthritis assessed as reduction in MPO activity in synovial fluid at 50 mg/kg, po pretreated for 1 hr followed by CFA stimulation and measured after 3 days; format: functional, organism-based
Mus musculus [15] = experiment: Antiinflammatory activity in complete freund's adjuvant-induced albino Swiss mouse model of arthritis assessed as reduction in leukocyte content in synovial fluid at 50 mg/kg, po pretreated for 1 hr followed by CFA stimulation and measured after 3 days; format: functional, organism-based
Mus musculus [16] = experiment: Antiinflammatory activity in complete freund's adjuvant-induced albino Swiss mouse model of arthritis assessed as reduction in TNFalpha production in synovial fluid at 50 mg/kg, po pretreated for 1 hr followed by CFA stimulation and measured after 3 days; format: functional, organism-based
Mus musculus [17] = experiment: Antiinflammatory activity in complete freund's adjuvant-induced albino Swiss mouse model of arthritis assessed as reduction in IL6 production in synovial fluid at 50 mg/kg, po pretreated for 1 hr followed by CFA stimulation and measured after 3 days; format: functional, organism-based
Mus musculus [18] = experiment: Antiinflammatory activity in complete freund's adjuvant-induced albino Swiss mouse model of arthritis assessed as reduction in IL10 production in synovial fluid at 50 mg/kg, po pretreated for 1 hr followed by CFA stimulation and measured after 3 days; format: functional, organism-based
Mus musculus [19] = experiment: Analgesic activity in complete freund's adjuvant-induced albino Swiss mouse model of hyperalgesia assessed as increase in paw withdrawal threshold at 50 mg/kg, po pretreated for 1 hr followed by CFA stimulation and measured after 7 hrs by analgesimetric method; format: functional, organism-based
Mus musculus [20] = experiment: Analgesic activity in complete freund's adjuvant-induced albino Swiss mouse model of hyperalgesia assessed as increase in paw withdrawal threshold at 50 mg/kg, po administered daily and measured every other for 10 days and on day 21 and 28; format: functional, organism-based
Mus musculus [21] = experiment: Antiinflammatory activity in complete freund's adjuvant-induced albino Swiss mouse model of arthritis assessed as reduction in IL6 production in spinal cord at 50 mg/kg, po pretreated for 1 hr followed by CFA stimulation and measured after 3 days; format: functional, organism-based
Mus musculus [22] = experiment: Antiinflammatory activity in complete freund's adjuvant-induced albino Swiss mouse model of arthritis assessed as reduction in COX2 production in spinal cord at 50 mg/kg, po pretreated for 1 hr followed by CFA stimulation and measured after 3 days by Western blot analysis; format: functional, organism-based
Mus musculus [23] = experiment: In vivo inhibition of NFkappaB phosphorylation at ser536 residue in complete freund's adjuvant-induced albino Swiss mouse model of arthritis at 50 mg/kg, po pretreated for 1 hr followed by CFA stimulation and measured after 3 days by Western blot analysis; format: functional, organism-based
Mus musculus [24] = experiment: Antiinflammatory activity in complete freund's adjuvant-induced albino Swiss mouse model of arthritis assessed as suppression of CFA-induced increase in total NFkappaB level at 50 mg/kg, po pretreated for 1 hr followed by CFA stimulation and measured after 3 days by Western blot analysis; format: functional, organism-based
Mus musculus [25] = experiment: In vivo inhibition of MAPK pathway in complete freund's adjuvant-induced albino Swiss mouse model of arthritis assessed as reduction in phosphorylated p38 MAPK to total p38 MAPK ratio in spinal cord at 50 mg/kg, po pretreated for 1 hr followed by CFA stimulation and measured after 3 days by Western blot analysis; format: functional, organism-based
Mus musculus [26] = experiment: Effect on ERK1/2 signaling in complete freund's adjuvant-induced albino Swiss mouse model of arthritis at 50 mg/kg, po pretreated for 1 hr followed by CFA stimulation and measured after 3 days by Western blot analysis; format: functional, organism-based

**Q.** What does the source list for `C/C(=C\CO)CCC[C@H](C)CCC[C@H](C)CCCC(C)C` [TRANS-PHYTOL]?
**A.** Activity (Mus musculus [1]): Active; Activity (Mus musculus [2]): 45%; Activity (Mus musculus [3]): 18%; Activity (Mus musculus [4]): 45%; Activity (Mus musculus [5]): Active; Activity (Mus musculus [6]): Active; Activity (Mus musculus [7]): Active; Activity (Mus musculus [8]): Active; Activity (Mus musculus [9]): inactive; Activity [10]: Non-Toxic; Activity [11]: Non-Toxic; Activity (Mus musculus [12]): Active; Activity (Mus musculus [13]): 46%; Activity (Mus musculus [14]): Active; Activity (Mus musculus [15]): Active; Activity (Mus musculus [16]): Active; Activity (Mus musculus [17]): Active; Activity (Mus musculus [18]): inactive; Activity (Mus musculus [19]): Active; Activity (Mus musculus [20]): Active; Activity (Mus musculus [21]): Active; Activity (Mus musculus [22]): Active; inhibition (Mus musculus [23]): Active; Activity (Mus musculus [24]): Active; inhibition (Mus musculus [25]): Active; Activity (Mus musculus [26]): inactive
